# In patent US20240190880A1 (THE REGENTS OF THE UNIVERSITY OF MICHIGAN, priority 2021, published 2024):
# Biological target: T1, ER (Homo sapiens, UniProt P03372)
# T1 construct: host or cells: T47D and MCF7 human breast cancer cells
# T1 sequence (P03372 1-595): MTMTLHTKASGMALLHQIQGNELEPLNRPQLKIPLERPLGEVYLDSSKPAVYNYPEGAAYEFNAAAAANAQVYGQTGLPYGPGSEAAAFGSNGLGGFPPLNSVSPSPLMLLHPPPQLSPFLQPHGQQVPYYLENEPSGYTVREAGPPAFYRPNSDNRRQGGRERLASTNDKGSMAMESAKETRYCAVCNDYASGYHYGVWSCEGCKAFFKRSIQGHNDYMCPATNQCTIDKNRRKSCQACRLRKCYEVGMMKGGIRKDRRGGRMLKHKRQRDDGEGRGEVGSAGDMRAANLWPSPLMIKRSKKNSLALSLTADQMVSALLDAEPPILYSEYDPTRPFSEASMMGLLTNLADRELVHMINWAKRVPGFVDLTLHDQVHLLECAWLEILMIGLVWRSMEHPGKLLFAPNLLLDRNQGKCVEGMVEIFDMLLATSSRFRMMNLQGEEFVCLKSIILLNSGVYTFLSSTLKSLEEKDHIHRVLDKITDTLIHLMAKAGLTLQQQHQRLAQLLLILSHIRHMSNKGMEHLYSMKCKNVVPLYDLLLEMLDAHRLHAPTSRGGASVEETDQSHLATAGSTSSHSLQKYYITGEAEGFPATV
# Test: ER degradation activity, in-cell western blot analysis in T47D cells
# Type: cell-based
# Conditions: 16 hours, Table A does not say which cell line (T47D or MCF7), read-out: Potency (DC50)
# Outline: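 In-cell western, T47D; compounds 16 h, 0.5% DMSO final; anti-rabbit-680/anti-mouse-800 secondaries, 1 h RT, dark; read on CLX imager. ER % vs untreated/DMSO wells (100%).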
row,SMILES,DC50 [nM]
1,"O=C1CCC(N2C(=O)c3cc4c(cc3C2=O)CN(CC2(F)CN(CC3CCN(c5ccc([C@@H]6c7ccc(O)cc7CC[C@@H]6c6ccccc6)cc5)CC3)C2)C4)C(=O)N1 (stereo partly drawn) [E 212, 2-(2,6-dioxopiperidin-3-yl)-6-((3-fluoro-1-((1-(4-((1R,2S)-6-hydroxy-2-phenyl-1,2,3,4-tetrahydronaphthalen-1-yl)phenyl)piperidin-4-yl)methyl)azetidin-3-yl)methyl)-6,7-dihydropyrrolo[3,4-f]isoindole-1,3(2H,5H)-dione]",> 100
2,"C[C@@H]1Cc2c([nH]c3ccccc23)[C@@H](c2c(F)cc(N3CC(C(=O)N4CCC(CN5Cc6cc7c(cc6C5)C(=O)N(C5CCC(=O)NC5=O)C7=O)CC4)C3)cc2F)N1CC(F)F (stereo partly drawn) [E 216, 6-((1-(1-(4-((1R,3R)-2-(2,2-difluoroethyl)-3-methyl-2,3,4,9-tetrahydro-1H-pyrido[3,4-b]indol-1-yl)-3,5-difluorophenyl)azetidine-3-carbonyl)piperidin-4-yl)methyl)-2-(2,6-dioxopiperidin-3-yl)-6,7-dihydropyrrolo[3,4-f]isoindole-1,3(2H,5H)-dione]",< 10
3,"O=C1CCC(N2C(=O)c3cc4c(cc3C2=O)CN(CC2CCN(CC3CCN(c5ccc([C@@H]6c7ccc(O)cc7CC[C@@H]6c6ccccc6)cc5)CC3)CC2)C4)C(=O)N1 (stereo partly drawn) [E 217, 2-(2,6-dioxopiperidin-3-yl)-6-((1-((1-(4-((1R,2S)-6-hydroxy-2-phenyl-1,2,3,4-tetrahydronaphthalen-1-yl)phenyl)piperidin-4-yl)methyl)piperidin-4-yl)methyl)-6,7-dihydropyrrolo[3,4-f]isoindole-1,3(2H,5H)-dione]",> 100
4,"O=C1CCC(N2C(=O)c3cc4c(cc3C2=O)CN(CC2CN(CC3CCN(c5ccc([C@@H]6c7ccc(O)cc7CC[C@@H]6c6ccccc6)cc5)CC3)C2)C4)C(=O)N1 (stereo partly drawn) [E 218, 2-(2,6-dioxopiperidin-3-yl)-6-((1-((1-(4-((1R,2S)-6-hydroxy-2-phenyl-1,2,3,4-tetrahydronaphthalen-1-yl)phenyl)piperidin-4-yl)methyl)azetidin-3-yl)methyl)-6,7-dihydropyrrolo[3,4-f]isoindole-1,3(2H,5H)-dione]",> 100
5,"C[C@@H]1Cc2cc(O)ccc2[C@@H](c2c(F)cc(N3CCC4(CCN(C(=O)CN5Cc6cc7c(cc6C5)C(=O)N(C5CCC(=O)NC5=O)C7=O)CC4)CC3)cc2F)N1CC(F)(F)F (stereo partly drawn) [E 225, 6-(2-(9-(3,5-difluoro-4-((1S,3R)-6-hydroxy-3-methyl-2-(2,2,2-trifluoroethyl)-1,2,3,4-tetrahydroisoquinolin-1-yl)phenyl)-3,9-diazaspiro[5.5]undecan-3-yl)-2-oxoethyl)-2-(2,6-dioxopiperidin-3-yl)-6,7-dihydropyrrolo[3,4-f]isoindole-1,3(2H,5H)-dione]",> 100
6,"C[C@@H]1Cc2c([nH]c3ccccc23)[C@@H](c2c(F)cc(N3CCC4(CCN(C(=O)CN5Cc6cc7c(cc6C5)C(=O)N(C5CCC(=O)NC5=O)C7=O)CC4)CC3)cc2F)N1CC(F)(F)F (stereo partly drawn) [E 226, 6-(2-(9-(3,5-difluoro-4-((1R,3R)-3-methyl-2-(2,2,2-trifluoroethyl)-2,3,4,9-tetrahydro-1H-pyrido[3,4-b]indol-1-yl)phenyl)-3,9-diazaspiro[5.5]undecan-3-yl)-2-oxoethyl)-2-(2,6-dioxopiperidin-3-yl)-6,7-dihydropyrrolo[3,4-f]isoindole-1,3(2H,5H)-dione]",10 to 100
7,"C[C@@H]1Cc2c([nH]c3ccccc23)[C@@H](c2c(F)cc(N3CCC4(CC3)CN(C(=O)CN3Cc5cc6c(cc5C3)C(=O)N(C3CCC(=O)NC3=O)C6=O)C4)cc2F)N1CC(F)(F)F (stereo partly drawn) [E 227, 6-(2-(7-(3,5-difluoro-4-((1R,3R)-3-methyl-2-(2,2,2-trifluoroethyl)-2,3,4,9-tetrahydro-1H-pyrido[3,4-b]indol-1-yl)phenyl)-2,7-diazaspiro[3.5]nonan-2-yl)-2-oxoethyl)-2-(2,6-dioxopiperidin-3-yl)-6,7-dihydropyrrolo[3,4-f]isoindole-1,3(2H,5H)-dione]",10 to 100
8,"C[C@@H]1Cc2c([nH]c3ccccc23)[C@@H](c2c(F)cc(N3CCC(C(=O)N4CCC(N5Cc6cc7c(cc6C5)C(=O)N(C5CCC(=O)NC5=O)C7=O)CC4)CC3)cc2F)N1CC(F)(F)F (stereo partly drawn) [E 228, 6-(1-(1-(3,5-difluoro-4-((1R,3R)-3-methyl-2-(2,2,2-trifluoroethyl)-2,3,4,9-tetrahydro-1H-pyrido[3,4-b]indol-1-yl)phenyl)piperidine-4-carbonyl)piperidin-4-yl)-2-(2,6-dioxopiperidin-3-yl)-6,7-dihydropyrrolo[3,4-f]isoindole-1,3(2H,5H)-dione]",10 to 100

# Results, then the compound that gave them:
row,DC50 [nM],SMILES
1,10 to 100,"O=C1CCC(N2C(=O)c3cc4c(cc3C2=O)CN(CC(=O)N2CCC3(CC2)CCN(c2ccc([C@H]5c6ccc(O)cc6CC[C@H]5c5ccc(F)cc5)cc2)CC3)C4)C(=O)N1 (stereo partly drawn) [E 213, 2-(2,6-dioxopiperidin-3-yl)-6-(2-(9-(4-((1S,2R)-2-(4-fluorophenyl)-6-hydroxy-1,2,3,4-tetrahydronaphthalen-1-yl)phenyl)-3,9-diazaspiro[5.5]undecan-3-yl)-2-oxoethyl)-6,7-dihydropyrrolo[3,4-f]isoindole-1,3(2H,5H)-dione]"
2,> 100,"O=C1CCC(N2C(=O)c3cc4c(cc3C2=O)CN(CC(=O)N2CCC(n3cc(-c5ccc([C@@H]6c7ccc(O)cc7CC[C@@H]6c6ccccc6)cc5)cn3)CC2)C4)C(=O)N1 (stereo partly drawn) [E 214, 2-(2,6-dioxopiperidin-3-yl)-6-(2-(4-(4-(4-((1R,2S)-6-hydroxy-2-phenyl-1,2,3,4-tetrahydronaphthalen-1-yl)phenyl)-1H-pyrazol-1-yl)piperidin-1-yl)-2-oxoethyl)-6,7-dihydropyrrolo[3,4-f]isoindole-1,3(2H,5H)-dione]"
3,> 100,"O=C1CCC(N2C(=O)c3cc4c(cc3C2=O)CN(CC(=O)N2CC(n3cc(-c5ccc([C@@H]6c7ccc(O)cc7CC[C@@H]6c6ccccc6)cc5)cn3)C2)C4)C(=O)N1 (stereo partly drawn) [E 215, 2-(2,6-dioxopiperidin-3-yl)-6-(2-(3-(4-(4-((1R,2S)-6-hydroxy-2-phenyl-1,2,3,4-tetrahydronaphthalen-1-yl)phenyl)-1H-pyrazol-1-yl)azetidin-1-yl)-2-oxoethyl)-6,7-dihydropyrrolo[3,4-f]isoindole-1,3(2H,5H)-dione]"
4,> 100,"O=C1CCC(N2C(=O)c3cc4c(cc3C2=O)CN(CC(=O)N2CCC(Oc3ccc([C@@H]5c6ccc(O)cc6CC[C@@H]5c5ccccc5)cc3)CC2)C4)C(=O)N1 (stereo partly drawn) [E 219, 2-(2,6-dioxopiperidin-3-yl)-6-(2-(4-(4-((1R,2S)-6-hydroxy-2-phenyl-1,2,3,4-tetrahydronaphthalen-1-yl)phenoxy)piperidin-1-yl)-2-oxoethyl)-6,7-dihydropyrrolo[3,4-f]isoindole-1,3(2H,5H)-dione]"
5,> 100,"O=C1CCC(N2C(=O)c3cc4c(cc3C2=O)CN(CC(=O)N2CCC3(CC2)CC(Oc2ccc([C@@H]5c6ccc(O)cc6CC[C@@H]5c5ccccc5)cc2)C3)C4)C(=O)N1 (stereo partly drawn) [E 220, 2-(2,6-dioxopiperidin-3-yl)-6-(2-(2-(4-((1R,2S)-6-hydroxy-2-phenyl-1,2,3,4-tetrahydronaphthalen-1-yl)phenoxy)-7-azaspiro[3.5]nonan-7-yl)-2-oxoethyl)-6,7-dihydropyrrolo[3,4-f]isoindole-1,3(2H,5H)-dione]"
6,> 100,"O=C1CCC(N2C(=O)c3cc4c(cc3C2=O)CN(CC(=O)N2CC3(CC(Oc5ccc([C@@H]6c7ccc(O)cc7CC[C@H]6c6ccccc6)cc5)C3)C2)C4)C(=O)N1 (stereo partly drawn) [E 221, 2-(2,6-dioxopiperidin-3-yl)-6-(2-(6-(4-((1R,2R)-6-hydroxy-2-phenyl-1,2,3,4-tetrahydronaphthalen-1-yl)phenoxy)-2-azaspiro[3.3]heptan-2-yl)-2-oxoethyl)-6,7-dihydropyrrolo[3,4-f]isoindole-1,3(2H,5H)-dione]"
7,> 100,"O=C1CCC(N2C(=O)c3cc4c(cc3C2=O)CN(C(=O)CN2CCC3(CC2)CC(Oc2ccc([C@@H]5c6ccc(O)cc6CC[C@@H]5c5ccccc5)cc2)C3)C4)C(=O)N1 (stereo partly drawn) [E 222, 2-(2,6-dioxopiperidin-3-yl)-6-(2-(2-(4-((1R,2S)-6-hydroxy-2-phenyl-1,2,3,4-tetrahydronaphthalen-1-yl)phenoxy)-7-azaspiro[3.5]nonan-7-yl)acetyl)-6,7-dihydropyrrolo[3,4-f]isoindole-1,3(2H,5H)-dione]"
8,> 100,"O=C1CCC(N2C(=O)c3cc4c(cc3C2=O)CN(CC(=O)N2CC3(CCC(Oc5ccc([C@@H]6c7ccc(O)cc7CC[C@@H]6c6ccccc6)cc5)CC3)C2)C4)C(=O)N1 (stereo partly drawn) [E 223, 2-(2,6-dioxopiperidin-3-yl)-6-(2-(7-(4-((1R,2S)-6-hydroxy-2-phenyl-1,2,3,4-tetrahydronaphthalen-1-yl)phenoxy)-2-azaspiro[3.5]nonan-2-yl)-2-oxoethyl)-6,7-dihydropyrrolo[3,4-f]isoindole-1,3(2H,5H)-dione]"
9,> 100,"O=C1CCC(N2C(=O)c3cc4c(cc3C2=O)CN(CC(=O)N2CCC3(CCC(Oc5ccc([C@@H]6c7ccc(O)cc7CC[C@@H]6c6ccccc6)cc5)CC3)CC2)C4)C(=O)N1 (stereo partly drawn) [E 224, 2-(2,6-dioxopiperidin-3-yl)-6-(2-(9-(4-((1R,2S)-6-hydroxy-2-phenyl-1,2,3,4-tetrahydronaphthalen-1-yl)phenoxy)-3-azaspiro[5.5]undecan-3-yl)-2-oxoethyl)-6,7-dihydropyrrolo[3,4-f]isoindole-1,3(2H,5H)-dione]"
